Legend:
neonatal murine calvaria = settings: L-arginine alone, 20 μM
Experimental: Selected compounds and appropriate controls were assayed in vitro (ex vivo) for bone formation activity (described above in “In Vitro Neonatal Mouse Calvaria Assay”). Histomorphometrical assessments of ex vivo calvaria were carried out using an OsteoMetrics bone morphometry measurement program, according to the manufacturer's instructions. Measurements were determined using either a 10- or 20-fold objective with a standard point counting eyepiece graticule.

three month old S-D rats = assay: Bone mineral density in rats treated orally by gavage for 16 weeks; assay type: in vivo, rat; settings: oral gavage, S-D rats (FIG. 4 lower panel)
Experimental: Statin equivalence: 100 mg/kg/day=0.72 mg/day; 400 mg/kg/day=2.9 mg/day; and 800 mg/kg/day=5.8 mg/day.
In this experiment, experimental groups of three month old S-D rats were used. Food was removed from the cages 6 hours prior to dosing. The animals were then treated orally by gavage once a day with vehicle (0.5% methylcellulose), lovastatin, or OsteoPure™ (lovastatin-containing reduced rice extract). OsteoPure™ was administered at 100, 400, or 800 mg/kg/day five days a week for 16 weeks. The statin equivalence in OsteoPure™ is 100 mg/kg/day=0.72 mg/day; 400 mg/kg/day=2.9 mg/day; and 800 mg/kg/day=5.8 mg/day. Rats were weighed weekly. Bone mineral density (BMD) were analyzed every four weeks. In the upper panel, the bone mineral densities (BMDs) are shown. In the lower panel, the % change in BMDs of the experimental over the 16 weeks is shown. […] This trend is confirmed in the long term analysis of percent change in BMDs shown in the lower panel.

bone resorption = settings: lipid clearing agents; Wang et al. 1995; cited from earlier work
osteoprogenitor cells = settings: cells treated with dexamethasone in vitro; Cui et al. 1996; cited from earlier work
bone mass = settings: Horiuchi et al. 2001, Kinoshita et al. 2000; cited from earlier work
rats = settings: injected locally into the subcutaneous tissues of rats; Wozney 1992; cited from earlier work

N=C(N)NCCC[C@H](N)C(=O)O [L-arginine]
bone formation (neonatal murine calvaria): induces bone formation

CC[C@H](C)C(=O)O[C@H]1C[C@@H](C)C=C2C=C[C@H](C)[C@H](CC[C@@H]3C[C@@H](O)CC(=O)O3)[C@H]21 [lovastatin]
percent change in BMDs over 16 weeks, co-administered with L-arginine relative to the agent alone (three month old S-D rats): greater increase in BMDs
bone resorption induced by steroid administration (bone resorption): inhibit bone resorption induced by steroid administration
triglyceride vesicles in osteoprogenitor cells (osteoprogenitor cells): diminished triglyceride vesicles

CC(=O)CCCCn1c(=O)c2c(ncn2C)n(C)c1=O [pentoxifylline]
bone mass (bone mass): increase bone mass by promoting bone formation

COc1ccc(C2CNC(=O)C2)cc1OC1CCCC1 (stereo not shown) [rolipram]
bone mass (bone mass): increase bone mass by promoting bone formation

B1: BMP-4: recombinant bone morphogenic protein (protein, UniProt P12644 293-408, looked up)
Bone morphogenetic protein 4: SPKHHSQRARKKNKNCRRHSLYVDFSDVGWNDWIVAPPGYQAFYCHGDCPFPLADHLNSTNHAIVQTLVNSVNSSIPKACCVPTELSAISMLYLDEYDKVVLKNYQEMVVEGCGCR
new bone formation (rats): can induce new bone formation

Source: patent publication US20040254238A1, “Bone growth stimulation with NO/statin and other NO modulating combinations” (OSTEOSCREEN, priority 2003, published 2004)
